# “Also recorded” adds a separate entry of the source. Read-outs that look alike come from different tables or passages of the source.
# Tests used:
# [1] = system: HCC1954 cells; experiment: Antiproliferation assay (Cell-titer Glo, 72 h); format: cell-based; settings: Homo sapiens, 72 h, means and standard deviations from three independent assays, read-out: HCC1954 (GI50/μM)
# Procedure: (§1) Breast-cancer cell lines (SK-Br3, HCC-1954) were purchased from Korea Cell Line Bank (Seoul, Korea) and were cultured in RPMI medium supplemented with 10% FBS and penicillin/streptomycin (Welgene, Seoul, Korea). All cell lines were maintained at 37 °C in a cell incubator in the presence of 5% CO2.
# (§2) Breast-cancer cells in culture media (100 μL volume/well, 5000 SK-Br3 cells/well, 1000 HCC-1954 cells/well) were seeded in tissue culture-treated 96-well plates, and incubated at a cell incubator for 24 h. Serially diluted compounds (3-fold, 10 point from 10 mM, duplicated) were pre-plated and 500 nL of compound solutions were pin-transferred to the cells in the assay plates using pintool system (JANUS liquid handler, PerkinElmer, Waltham, MA, USA) and incubated at a cell incubator for 72 h. Cell-titer Glo^TM reagent (50 μL, Promega Corp., Madison, WI, USA) was added to each well, and the luminescence signal was read using an Envision^TM plate reader (PerkinElmer, Waltham, MA, USA). The titration curve fitting and IC50 values were generated using Prism 7.0 s/w (GraphPad, San Diego, CA, USA).
# [2] = system: SK-Br3 cells; experiment: Antiproliferation assay (Cell-titer Glo, 72 h); format: cell-based; settings: Homo sapiens, SK-BR-3; 72 h; means and standard deviations from three independent assays; read-out: SK-Br3 (GI50/μM)
# Procedure: as §1, §2
# [3] = system: cyclinK; experiment: Western blot of cyclinK in SK-Br3 cells; format: cell-based, human; settings: SK-Br3 cells, 0.2, 1 μM, 2 h
# Procedure: (§3) The proteins were transferred to nitrocellulose membrane (Gelman Sciences, Ann Arbor, MI, USA) by electroblotting. The membranes were blocked with 5% non-fat dry milk (MB Cell, Seoul, Korea), incubated with primary antibodies for overnight at 4 °C. After the washing steps were performed with TBST solution, the membranes were incubated with HRP-conjugated secondary antibodies for 1 h at rt. After the secondary washing steps using TBST solution, protein bands on the membranes were visualized using enhanced chemiluminescence ECL detection reagent (Biorad Laboratories, Hercules, CA, USA).
# [4] = system: Pol II p-CTD (Ser2); experiment: Western blot of Pol II p-CTD (Ser2) in SK-Br3 cells; format: cell-based, human; settings: SK-Br3 cells, 0.2, 1 μM, 2 h
# Excerpt: For Western blot analysis, the following antibodies were used: anti-Pol II CTD (2629S, Cell Signaling Technology, Danvers, MA, USA), anti-Pol II p-CTD (Ser2) (13499S, Cell Signaling Technology), anti-cyclinK (A301-939A-M, Bethyl Laboratories), anti-IRS1 (3407S, Cell Signaling Technology), anti-WNT1 (SC-514531, Santa Cruz Biotechnology, Dallas, TX, USA), anti-β-actin (MAB1501R, Millipore, Burlington, MA, USA), and horseradish peroxidase (HRP)-conjugated secondary antibodies (anti-mouse GTX213112-01; anti-rabbit GTX213110-01) (Genetex, Irvine, CA, USA).
# as §3, with “Cells were lysed with lysis buffer containing 50 mM Tris pH 7.4, 150 mM NaCl, 1 mM EDTA, 1% NP-40, and 0.25% sodium deoxycholate supplemented with protease-inhibitor and phosphatase-inhibitor cocktails. The lysate samples (25 μg/lane) were loaded onto 6–12% sodium dodecyl sulfate polyacrylamide gel and separated by electrophoresis (SDS-PAGE). The proteins” for “The proteins”
# [5] = molecular target: CDK12/CyclinK (Homo sapiens, UniProt Q9NYV4); experiment: In vitro CDK12/cyclinK kinase assay; format: biochemical; design: purchased Reaction Biology Corp. (CRO that ran the assay)
# Procedure: In vitro CDK12/cyclinK assays for all compounds and in vitro kinome-wide inhibition profiling of 30d at 10 μM were performed by a CRO company (Reaction Biology Corp., San Diego, CA, USA).
# [6] = Tables 1-4, read-out: CDK12/CyclinK (IC50/μM)
# Chain of CDK12/CyclinK (Q9NYV4 whole entry): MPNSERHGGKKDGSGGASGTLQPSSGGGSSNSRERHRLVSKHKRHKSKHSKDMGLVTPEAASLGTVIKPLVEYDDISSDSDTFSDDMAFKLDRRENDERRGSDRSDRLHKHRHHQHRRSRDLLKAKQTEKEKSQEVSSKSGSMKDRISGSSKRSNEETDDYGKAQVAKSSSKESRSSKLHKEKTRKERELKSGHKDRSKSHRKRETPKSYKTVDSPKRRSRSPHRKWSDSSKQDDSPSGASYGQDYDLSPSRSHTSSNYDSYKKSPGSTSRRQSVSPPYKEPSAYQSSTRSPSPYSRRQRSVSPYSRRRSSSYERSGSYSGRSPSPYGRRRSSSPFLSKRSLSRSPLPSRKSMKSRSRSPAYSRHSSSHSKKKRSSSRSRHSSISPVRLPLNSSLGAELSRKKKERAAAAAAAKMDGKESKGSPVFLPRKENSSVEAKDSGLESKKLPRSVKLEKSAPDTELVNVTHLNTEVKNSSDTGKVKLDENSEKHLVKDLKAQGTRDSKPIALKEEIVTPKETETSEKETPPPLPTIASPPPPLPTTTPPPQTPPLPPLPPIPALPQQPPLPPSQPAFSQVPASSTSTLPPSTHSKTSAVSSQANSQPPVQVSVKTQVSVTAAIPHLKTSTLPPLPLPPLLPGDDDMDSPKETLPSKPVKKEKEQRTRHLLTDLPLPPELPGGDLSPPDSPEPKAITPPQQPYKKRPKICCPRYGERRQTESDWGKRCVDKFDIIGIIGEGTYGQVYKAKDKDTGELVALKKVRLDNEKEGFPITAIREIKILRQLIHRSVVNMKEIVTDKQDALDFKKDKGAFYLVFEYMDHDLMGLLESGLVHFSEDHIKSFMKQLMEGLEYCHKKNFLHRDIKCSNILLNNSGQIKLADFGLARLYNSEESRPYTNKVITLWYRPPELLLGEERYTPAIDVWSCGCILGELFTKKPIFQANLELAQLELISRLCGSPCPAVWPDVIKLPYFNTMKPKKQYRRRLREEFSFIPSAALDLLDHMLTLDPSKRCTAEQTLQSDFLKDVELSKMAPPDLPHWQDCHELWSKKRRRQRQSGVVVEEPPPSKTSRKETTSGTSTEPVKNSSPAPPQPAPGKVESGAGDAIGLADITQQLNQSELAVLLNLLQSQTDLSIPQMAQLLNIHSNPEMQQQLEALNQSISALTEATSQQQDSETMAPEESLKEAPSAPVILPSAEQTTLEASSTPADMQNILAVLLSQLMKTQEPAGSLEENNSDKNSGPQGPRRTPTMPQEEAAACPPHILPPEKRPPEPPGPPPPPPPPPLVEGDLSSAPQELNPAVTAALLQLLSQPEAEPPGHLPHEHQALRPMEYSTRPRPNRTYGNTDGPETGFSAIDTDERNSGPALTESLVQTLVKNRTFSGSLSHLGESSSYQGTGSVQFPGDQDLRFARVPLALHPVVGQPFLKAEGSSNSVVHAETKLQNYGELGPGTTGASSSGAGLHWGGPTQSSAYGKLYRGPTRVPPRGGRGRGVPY
# Chain of CDK12/CyclinK (O75909 whole entry partner): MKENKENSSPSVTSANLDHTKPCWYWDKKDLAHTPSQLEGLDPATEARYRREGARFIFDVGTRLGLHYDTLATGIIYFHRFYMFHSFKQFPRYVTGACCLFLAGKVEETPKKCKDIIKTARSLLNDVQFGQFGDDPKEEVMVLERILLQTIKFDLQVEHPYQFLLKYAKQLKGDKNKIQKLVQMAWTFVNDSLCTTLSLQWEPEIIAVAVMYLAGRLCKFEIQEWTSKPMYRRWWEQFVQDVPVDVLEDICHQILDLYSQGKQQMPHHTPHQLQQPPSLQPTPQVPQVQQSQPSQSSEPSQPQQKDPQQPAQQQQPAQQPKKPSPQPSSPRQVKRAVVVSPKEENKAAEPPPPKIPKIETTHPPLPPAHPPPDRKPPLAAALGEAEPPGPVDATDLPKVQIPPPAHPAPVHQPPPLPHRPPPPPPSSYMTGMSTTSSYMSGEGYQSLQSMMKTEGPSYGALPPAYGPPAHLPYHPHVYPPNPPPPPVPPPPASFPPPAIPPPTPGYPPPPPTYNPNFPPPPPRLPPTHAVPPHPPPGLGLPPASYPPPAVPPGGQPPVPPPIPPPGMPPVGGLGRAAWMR
GI50 [1],GI50 [2],"IC50 [5, 6]",IC50 ([5]; read-out: CDK12/cyclinK IC50),"IC50 ([5]; Table 5, means and standard deviations from three independent assays, read-out: CDK12/CyclinK (IC50/μM))",Compound,cyclinK level (Western blot) [3],PolII p-CTD (Ser2) level (Western blot) [4]
0.106 ± 0.011 µM,0.151 ± 0.025 µM,0.433 µM,–,–,"CC(C)n1cnc2c(NCc3ccc(-c4ccccn4)cn3)nc(-c3cccnc3)nc21 [Compound 17a, N-([2,3′-Bipyridin]-6′-ylmethyl)-9-isopropyl-2-(pyridin-3-yl)-9H-purin-6-amine]",most prominent cyclinK degradation; also recorded: downregulated Pol II p-CTD (Ser2) and cyclinK in a dose-dependent manner,downregulated Pol II p-CTD (Ser2) and cyclinK in a dose-dependent manner
0.627 ± 0.128 µM,0.862 ± 0.178 µM,0.582 µM,–,–,"CC(C)n1cnc2c(NCc3ccc(-c4cccnc4)cn3)nc(-c3cccnc3)nc21 [Compound 17b, N-([3,3′-Bipyridin]-6-ylmethyl)-9-isopropyl-2-(pyridin-3-yl)-9H-purin-6-amine]",downregulated Pol II p-CTD (Ser2) and cyclinK in a dose-dependent manner,downregulated Pol II p-CTD (Ser2) and cyclinK in a dose-dependent manner
0.887 ± 0.04 µM,0.741 ± 0.034 µM,0.627 µM,–,–,"CC(C)n1cnc2c(NCc3ccc(-c4ccncc4)cn3)nc(-c3cccnc3)nc21 [Compound 17d, N-([3,4′-Bipyridin]-6-ylmethyl)-9-isopropyl-2-(pyridin-3-yl)-9H-purin-6-amine]",downregulated Pol II p-CTD (Ser2) and cyclinK in a dose-dependent manner,downregulated Pol II p-CTD (Ser2) and cyclinK in a dose-dependent manner
0.23 ± 0.044 µM,0.277 ± 0.038 µM,0.481 µM,–,–,"Cc1cc(-c2ccc(CNc3nc(-c4cccnc4)nc4c3ncn4C(C)C)nc2)ccn1 [Compound 17e, 9-Isopropyl-N-((2′-methyl-[3,4′-bipyridin]-6-yl)methyl)-2-(pyridin-3-yl)-9H-purin-6-amine]",downregulated Pol II p-CTD (Ser2) and cyclinK in a dose-dependent manner,downregulated Pol II p-CTD (Ser2) and cyclinK in a dose-dependent manner
0.174 ± 0.019 µM,0.262 ± 0.021 µM,0.053 µM,–,–,"CC(C)n1cnc2c(NCc3ccc(-c4cccnc4)nc3)nc(-c3ccc(NCCO)nc3)nc21 [Compound 22a, 2-((5-(6-(([2,3′-Bipyridin]-5-ylmethyl)amino)-9-isopropyl-9H-purin-2-yl)pyridin-2-yl)amino)ethan-1-ol]",–,–
0.977 ± 0.07 µM,1.18 ± 0.118 µM,0.304 µM,–,–,"CC(C)n1cnc2c(NCc3ccc(-c4cccnc4)nc3)nc(-c3ccc(NCCCO)nc3)nc21 [Compound 22b, 3-((5-(6-(([2,3′-Bipyridin]-5-ylmethyl)amino)-9-isopropyl-9H-purin-2-yl)pyridin-2-yl)amino)propan-1-ol]",–,–
0.433 ± 0.052 µM,0.473 ± 0.087 µM,0.086 µM,–,–,"CC(C)n1cnc2c(NCc3ccc(-c4cccnc4)nc3)nc(-c3ccnc(NCCO)c3)nc21 [Compound 22c, 2-((4-(6-(([2,3′-Bipyridin]-5-ylmethyl)amino)-9-isopropyl-9H-purin-2-yl)pyridin-2-yl)amino)ethan-1-ol]",–,–
0.387 ± 0.037 µM,0.48 ± 0.026 µM,0.113 µM,–,–,"CC(C)n1cnc2c(NCc3ccc(-c4cccnc4)nc3)nc(-c3ccnc(NCCCO)c3)nc21 [Compound 22d, 3-((4-(6-(([2,3′-Bipyridin]-5-ylmethyl)amino)-9-isopropyl-9H-purin-2-yl)pyridin-2-yl)amino)propan-1-ol]",–,–
3.44 ± 0.177 µM,5.16 ± 0.365 µM,2.35 µM,–,–,"Cc1cc(N)n(-c2nc(NCc3ccc(-c4cccnc4)nc3)c3ncn(C(C)C)c3n2)n1 [Compound 24, N-([2,3′-Bipyridin]-5-ylmethyl)-2-(5-amino-3-methyl-1H-pyrazol-1-yl)-9-isopropyl-9H-purin-6-amine]",–,–
9.97 ± 1.86 µM,13.3 ± 3.15 µM,2.05 µM,–,–,"CC(C)n1cnc2c(NCc3ccc(-c4cccnc4)nc3)nc(-n3cc(CO)nn3)nc21 [Compound 26a, (1-(6-(([2,3′-Bipyridin]-5-ylmethyl)amino)-9-isopropyl-9H-purin-2-yl)-1H-1,2,3-triazol-4-yl)methanol]",–,–
6.16 ± 0.429 µM,8.3 ± 0.882 µM,0.539 µM,–,–,"CC(C)n1cnc2c(NCc3ccc(-c4cccnc4)nc3)nc(-n3cc(CCO)nn3)nc21 [Compound 26b, 2-(1-(6-(([2,3′-Bipyridin]-5-ylmethyl)amino)-9-isopropyl-9H-purin-2-yl)-1H-1,2,3-triazol-4-yl)ethan-1-ol]",–,–
0.142 ± 0.014 µM,0.215 ± 0.053 µM,0.016 µM,< 0.03 µM,–,"CCn1cnc2c(NCc3ccc(-c4cccnc4)nc3)nc(-c3cccnc3)nc21 [Compound 28a, N-([2,3′-Bipyridin]-5-ylmethyl)-9-ethyl-2-(pyridin-3-yl)-9H-purin-6-amine]",–,–
2.14 ± 0.176 µM,2.6 ± 0.31 µM,0.293 µM,–,–,"c1cncc(-c2ccc(CNc3nc(-c4cccnc4)nc4c3ncn4C3CCCC3)cn2)c1 [Compound 28b, N-([2,3′-Bipyridin]-5-ylmethyl)-9-cyclopentyl-2-(pyridin-3-yl)-9H-purin-6-amine]",–,–
0.195 ± 0.05 µM,0.03 ± 0.006 µM,–,–,0.051 ± 0.007 µM,"CN(C)C/C=C/C(=O)Nc1ccc(C(=O)N2CCC[C@@H](Nc3ncc(Cl)c(-c4c[nH]c5ccccc45)n3)C2)cc1 [THZ531, reference compound]",–,–
